Experiments:
[1] = target: T1, aldose reductase from calves lenses (Bos taurus, UniProt P16116); assay: inhibiting activity of aldose reductase from calves lenses; assay type: biochemical; details: read-out: IC50 values (concentrations which bring about 50% enzyme inhibition)
T1 construct: aldose reductase from calves lenses; from tissue; host or cells: calf lens

[2] = tested on: galactosaemic rats; assay: dulcitol concentration in the eye lens of galactosaemic rats (30% galactose diet); assay type: in vivo; details: compared to untreated galactosaemic animals
Description: (§1) Furthermore, the compound of formula I in which R^1 is fluorine and R^2 is hydrogen was investigated for its activity on galactosaemic rats (30% galactose diet). More particularly, the dulcitol concentration in the eye lens was determined after 5 applications of 5 and of 20 mg/kg body weight per os over 2 days. Similarly, 20 mg/kg were administered intraperitoneally in an additional experiment. […] The same compound was also administered to streptozotocin-treated, diabetic rats (3 times 20 mg/kg p.o., 4, 8 and 24 hours after streptozotocin administration). Three (3) hours after the administration of the last dosage, the sorbitol concentration was determined in the eye lens and in the sciatic nerve.

[3] = tested on: streptozotocin-treated, diabetic rats; assay: sorbitol concentration in eye lens and sciatic nerve of streptozotocin-treated, diabetic rats; assay type: in vivo; details: 3 times 20 mg/kg p.o. (4, 8 and 24 hours after streptozotocin), 3 hours after last dosage
Description: as §1

Row | Compound | IC50 [1] | dulcitol concentration in the eye lens ([2]; 20 mg/kg administered intraperitoneally) | dulcitol concentration in the eye lens ([2]; 5 applications of 5 mg/kg body weight per os over 2 days) | dulcitol concentration in the eye lens ([2]; 5 applications of 20 mg/kg body weight per os over 2 days) | sorbitol concentration in the eye lens [3] | sorbitol concentration in the sciatic nerve [3]
1 | O=C1NC(=O)C2(CCOc3c([N+](=O)[O-])cc(F)cc32)S1 (racemic) [(±)-6-fluoro-8-nitro-2,3-dihydrospiro[4H-1-benzopyran-4,5'-thiazolidine]-2',4'-dione] | 89 nM | – | – | – | – | –
2 | O=C1NC(=O)C2(CCOc3ccc(F)cc32)S1 (racemic) [(±)-6-fluoro-2,3-dihydrospiro[4H-1-benzopyran-4,5'-thiazolidine]-2',4'-dione] | 100 nM | significant decrease | significant decrease | significant decrease | clear decrease | clear decrease
3 | CC(=O)Nc1cc(F)cc2c1OCCC21SC(=O)NC1=O (racemic) [(±)-6-fluoro-8-acetamido-2,3-dihydrospiro[4H-1-benzopyran-4,5'-thiazolidine]-2',4'-dione] | 8 nM | – | – | – | – | –
